One data set deals with A549 cells. Put plainly: Mitochondrial depolarization (JC-1). It counts as cell-based, Human. Conditions: 0.1 μM, 4 h. The protocol:
(§1) Mitochondrial depolarization was measured by staining cells with the fluorescent probe JC-1 (Biotium Inc., Hayward, CA, United States), as described ([Riganti et al., 2015a]). The red fluorescence, index of polarized mitochondria, was detected at 550 nm (λ excitation) and 600 nm (λ emission); the green fluorescence, index of depolarized and damaged mitochondria, was detected at 485 nm (λ excitation) and 535 nm (λ emission). The fluorescence units were used to calculate the percentage of green-fluorescent versus red-fluorescent mitochondria.
(§2) [t] Continuedof three experiments with similar results. (D) Confocal analysis of mitochondrial staining with MitoTracker® Green FM. Magnification: 60 × objective (0.52 numerical aperture); 10 × ocular lens. Bar: 10 μM. The micrographs are representative of three experiments with similar results. (E,F) The electron transport was measured spectrophotometrically in duplicates. ATP levels in mitochondrial extracts was measured by a chemiluminescence-based assay, in duplicates. Data are means ± SD (n = 3). For both panels: ^∗p < 0.001 vs. A549 ctrl cells; °p < 0.001 for BEAS-2B cells vs. the corresponding condition in A549 cells. (G,H) ROS amount in mitochondrial extracts and mitochondrial damage were measured fluorimetrically, in duplicates. Data are means ± SD (n = 3). For both panels: ^∗p < 0.001 vs. A549 ctrl cells; °p < 0.001 for BEAS-2B cells vs. the corresponding condition in A549 cells. There were no statistically significant differences between untreated (ctrl) and compound 1/compound 2-treated BEAS-2B cells for all the parameters analyzed in this figure.

The test system of a further data set is BEAS-2B cells. Put plainly: Mitochondrial depolarization (JC-1). It counts as cell-based, Human. Conditions: 0.1 μM, 4 h. The protocol: as §1, §2
The next data set concerns mitochondrial ROS. Description: Mitochondrial ROS (MitoSOX Red) in BEAS-2B cells. It counts as cell-based, Human. Particulars: 0.1 μM, 4 h. The protocol: The amount of ROS in mitochondrial extracts was measured fluorimetrically by incubating cell suspension at 37°C for 10 min with 10 μM of MitoSOX Red probe (Invitrogen Life Technologies), as per manufacturer’s instructions. Results were expressed as nmoles/mg mitochondrial proteins, using a calibration curve previously set with serial dilution of H2O2.
as §2, with “= 3). […] There were” for “= 3). For both panels: ^∗p < 0.001 vs. A549 ctrl cells; °p < 0.001 for BEAS-2B cells vs. the corresponding condition in A549 cells. There were”

Data set [1] concerns human cancer cell lines and normal cells. Put plainly: Cell viability, panel of cancer cell lines and normal cells. It counts as cell-based. Particulars: for IC50: Homo sapiens, all cancer cell lines examined; for concentrations with cytotoxic activity: cancer cell lines in vitro. The source says: Human colon cancer HT29 cells, colon-derived normal fibroblast CCD-18Co cells, lung cancer A549 cells, normal human bronchial epithelial (immortalized with adenovirus 12-SV40 virus hybrid Ad12SV40) BEAS-2B cells, breast cancer MDA-MB-231 cells, normal breast epithelial MCF10A cells, human osteosarcoma U-2OS cells were purchased from ATCC (Manassas, VA, United States). Primary osteoblasts were generated as reported previously ([Buondonno et al., 2016]). HMM and HMC were primary cells stabilized in culture as described ([Aldieri et al., 2004]). The use of primary cells was approved by Ethical Committee of the San Luigi Gonzaga Hospital, Orbassano, (protocol #126/2016). All subjects gave written informed consent in accordance with the Declaration of Helsinki. Cells were maintained in medium supplemented with 10% v/v fetal bovine serum, 1% v/v penicillin-streptomycin, 1% v/v L-glutamine. Morphological analysis was performed with a bright field microscope (Leica Microsystems, Wetzlar, Germany). At least 5 fields/experimental condition were examined.
The extracellular release of LDH, considered an index of cell damage and necrosis, was measured spectrophotometrically, as reported ([Riganti et al., 2013b]). The extracellular medium was centrifuged at 12,000 × g for 15 min to pellet cellular debris, the cells were washed with fresh medium, detached with 0.01% trypsin/EDTA, re-suspended in 0.2 ml of 82.3 mM triethanolamine phosphate-HCl (pH 7.6), and sonicated on ice with two 10-sec bursts. LDH activity was measured in the extracellular medium and in the cell lysate: 50 μl of extracellular medium or 5 μl of cell lysate were incubated at 37°C with 5 mM NADH. The reaction was started by adding 20 mM pyruvic acid and was monitored for 6 min, measuring absorbance at 340 nm using a Synergy HT Multi-Detection Microplate Reader (Bio-Tek Instruments, Winoosky, MT, United States). The reaction kinetics were linear throughout the time of measurement. Both intracellular and extracellular enzyme activities were expressed as μmol NADH oxidized/min/dish. The results were expressed as percentage of extracellular LDH versus total (intracellular plus extracellular) LDH. Cell viability was measured by the neutral red staining method, as previously reported ([Riganti et al., 2015b]). The absorbance of untreated cells was considered as 100% viability; the results were expressed as percentage of viable cells versus untreated cells. IC50 was calculated with the CompuSyn software^1.
FIGURE 4 Effects of phenolic TPP-derivatives on the viability of cancer cell lines and normal cells. Cells were incubated 72 h in fresh medium (0) or with increasing concentrations (0.1, 1, and 10 μM) of 1 and 2. Cell viability was measured spectrophotometrically in quadruplicates. […]

Data set [2] concerns electron transport between complexes I and III. Description: Electron transport chain in mitochondrial extracts of A549 cells. It counts as cell-based, Human. Conditions: 0.1 μM, 4 h. As to the method: The electron transport between complexes I and III was measured in mitochondrial extracts, immediately after extract thawing, as detailed earlier ([Jean et al., 2015]). In particular, 10 μl of not-sonicated mitochondrial samples were re-suspended in 0.59 ml buffer C (5 mM KH2PO4, 5 mM MgCl2, 5% w/v BSA) and transferred into a quartz spectrophotometer cuvette. Then 0.38 ml buffer D (25% w/v saponin, 50 mM KH2PO4, 5 mM MgCl2, 5% w/v BSA, 0.12 mM cytochrome c-oxidized form, 0.2 mM NaN3) was added for 5 min at room temperature. The reaction was started with 0.15 mM NADH and was followed for 5 min, reading the absorbance at 550 nm by a Lambda 3 spectrophotometer (PerkinElmer, Waltham, MA, United States). The results were expressed as nmoles reduced cytochrome c/min/mg mitochondrial proteins. […]
[t] […] (E,F) The electron transport was measured spectrophotometrically in duplicates. ATP levels in mitochondrial extracts was measured by a chemiluminescence-based assay, in duplicates. […] (G,H) ROS amount in mitochondrial extracts and mitochondrial damage were measured fluorimetrically, in duplicates. […] There were no statistically significant differences between untreated (ctrl) and compound 1/compound 2-treated BEAS-2B cells for all the parameters analyzed in this figure.

For data set [3], the system named is PGC-1α. Put plainly: Immunoblot of nuclear PGC-1α in A549 cells. It counts as cell-based, Human. Particulars: 0.1 μM, 4 h. A general note: In western blotting, separated proteins are transferred to a membrane and probed.
The test system of data set [4] is mitofusin 1 (MFN1) and mitofusin 2 (MFN2). Put plainly: qRT-PCR of mitofusin mRNA in BEAS-2B cells. It counts as cell-based, Human. Particulars: 0.1 μM, 4 h. The protocol: Supplementary Figure 4 Effects of TPP-derivatives on mitofusin 1 and mitofusin 2 expression.
A549 and BEAS-2B cells were incubated 4 h in fresh medium (ctrl) or with 0.1 µM of 1 and 2.
Expression of mitofusin 1 (MFN1) and mitofusin 2 (MFN2) mRNA was evaluated by qRT-PCR in
triplicates. Data are means ± SD (n=3).
(1 picture or pasted object on this page, not shown here)
A general note: In qPCR the cycle at which signal appears reflects the starting amount.

For data set [5], the system named is PGC-1α. Description: Immunoblot of nuclear PGC-1α in BEAS-2B cells. It counts as cell-based, Human. Particulars: 0.1 μM, 4 h.

We go through 2 compounds from article PMC5994430, “Mitochondrial Delivery of Phenol Substructure Triggers Mitochondrial Depolarization and Apoptosis of Cancer Cells” (Frontiers in Pharmacology, 2018).

Each structure is given as a SMILES string.

For the compound `CC(=O)Oc1ccc(C[P+](c2ccccc2)(c2ccccc2)c2ccccc2)cc1.[Br-]` [Compound 1], the “percentage of depolarized mitochondria” value with A549 cells is “acutely increased”. Besides, in the data set on BEAS-2B cells, the mitochondrial depolarization result is on record as “negligible modifications”. Also, the “mitochondrial ROS” value in the data set on mitochondrial ROS was “negligible modifications”. Moreover, in data set [1], the IC50 is below 10 µM and the “concentrations with cytotoxic activity” value lay in the range of 0.1 to 1 µM. For the same compound, in data set [2], the “rate of electron transport” value is “significant decrease”. For the same compound, the “nuclear level of PGC-1α” value with PGC-1α [3] was “reduced”. The “expression of mitofusin 1 (MFN1) and mitofusin 2 (MFN2)” value in data set [4] is listed as “no changes”. Moreover, in the data set on PGC-1α [5], the “nuclear level of PGC-1α” value was “unaffected”.

As to `O=C(Oc1ccc(C[P+](c2ccccc2)(c2ccccc2)c2ccccc2)cc1C(F)(F)F)c1ccccc1.[Br-]` [Compound 2], in the data set on A549 cells, the “percentage of depolarized mitochondria” value is on record as “acutely increased”. The mitochondrial depolarization result in the data set with BEAS-2B cells is “negligible modifications”. The “mitochondrial ROS” value with mitochondrial ROS is “negligible modifications”. In data set [1], the half-inhibitory concentration (IC50) is below 10 µM and the “concentrations with cytotoxic activity” value lay in the range of 0.1 to 1 µM. Besides, the “rate of electron transport” value in data set [2] was “significant decrease”. Besides, the “nuclear level of PGC-1α” value in the data set on PGC-1α [3] was “reduced”. Besides, the “expression of mitofusin 1 (MFN1) and mitofusin 2 (MFN2)” value in data set [4] was “no changes”. The “nuclear level of PGC-1α” value with PGC-1α [5] was “unaffected”.

For orientation: IC50 means the concentration needed to halve the response being measured.
